The results in this text go back to ChEMBL document CHEMBL5038618, “Discovery of PT-65 as a highly potent and selective Proteolysis-targeting chimera degrader of GSK3 for treating Alzheimer's disease” (Eur J Med Chem, 2021).

The source made the active and inactive calls. The calls are words filed in the database; no cut-off is given here.

Data set [1] in a line: Downregulation of GSK3alpha expression in human SH-SY5Y cells accessed as fold change in GSK3alpha expression at 1 uM measured after 4 hrs by proteomic analysis. Type of data set: functional.
Data set [2] has as its system Rattus norvegicus. In words: Antialzheimer activity against hippocampal tissue of okadaic acid induced Sprague-Dawley rat assessed as reduction on tau protein level at 200 to 600 uM, iv by immunohistochemical staining based analysis. The data set is classed as functional, organism-based. As to conditions: Hippocampus, dose 200-600 µM.
For data set [3], the system named is Rattus norvegicus. Kind of data set: Antialzheimer activity against hippocampal tissue of okadaic acid induced Sprague-Dawley rat assessed as reduction on GSK3alpha protein level at 200 to 600 uM, iv by western blot assay. Type of data set: functional, organism-based. As to conditions: Hippocampus, dose 200-600 µM. In general terms: In western blotting, separated proteins are transferred to a membrane and probed.

The subject of data set [4] is SH-SY5Y. In words: Induction of apoptosis in human SH-SY5Y cells assessed as necrotic cells at 62.5 nM preincubated for 2 hrs followed by coincubation with Abeta42 and measured after 72 hrs by Annexin V-FITC/propidium iodide staining based flow cytometry (Rvb=0.7%). The data set is classed as functional. As to conditions: time 74 hrs.
For data set [5], the target named is Protein cereblon/Glycogen synthase kinase-3 alpha (Homo sapiens, UniProt P49840+Q96SW2). In words: Protac activity at CRBN/GSK3alpha in human SH-SY5Y cells assessed as induction of GSK3alpha degradation at 0.1 uM measured after 24 hrs. The data set is classed as cell-based.
Sequence of Protein cereblon/Glycogen synthase kinase-3 alpha (P49840 2-483 limits assumed): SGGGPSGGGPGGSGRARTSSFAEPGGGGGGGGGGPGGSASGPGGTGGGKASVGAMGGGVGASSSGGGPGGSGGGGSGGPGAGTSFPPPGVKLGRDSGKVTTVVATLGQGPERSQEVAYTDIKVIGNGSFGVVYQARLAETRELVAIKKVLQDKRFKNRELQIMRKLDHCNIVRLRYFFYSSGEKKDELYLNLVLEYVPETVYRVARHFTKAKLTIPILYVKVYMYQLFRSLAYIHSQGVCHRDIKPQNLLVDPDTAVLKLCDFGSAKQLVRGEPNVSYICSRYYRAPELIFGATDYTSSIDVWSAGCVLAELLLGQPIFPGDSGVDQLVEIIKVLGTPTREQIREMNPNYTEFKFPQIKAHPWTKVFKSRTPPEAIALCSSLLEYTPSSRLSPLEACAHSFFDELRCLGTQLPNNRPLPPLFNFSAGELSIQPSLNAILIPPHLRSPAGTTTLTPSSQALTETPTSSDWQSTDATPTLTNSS
Sequence of Protein cereblon/Glycogen synthase kinase-3 alpha (Q96SW2 whole entry partner): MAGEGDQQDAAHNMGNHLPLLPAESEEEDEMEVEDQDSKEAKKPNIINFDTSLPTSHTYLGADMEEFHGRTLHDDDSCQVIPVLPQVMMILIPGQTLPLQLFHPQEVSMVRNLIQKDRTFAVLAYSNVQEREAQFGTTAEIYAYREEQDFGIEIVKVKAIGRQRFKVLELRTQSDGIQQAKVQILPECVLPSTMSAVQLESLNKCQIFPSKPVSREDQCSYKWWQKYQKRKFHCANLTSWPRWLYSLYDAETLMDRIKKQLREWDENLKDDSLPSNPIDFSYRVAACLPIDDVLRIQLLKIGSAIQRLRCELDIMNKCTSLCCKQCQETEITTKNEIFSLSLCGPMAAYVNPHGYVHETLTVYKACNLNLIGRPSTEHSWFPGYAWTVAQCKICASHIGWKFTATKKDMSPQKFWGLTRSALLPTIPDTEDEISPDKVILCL
For data set [6], the target named is T1, Protein cereblon/Glycogen synthase kinase-3 beta (Homo sapiens, UniProt P49841+Q96SW2). In words: Protac activity at CRBN/GSK3beta in human SH-SY5Y cells assessed as induction of GSK3beta degradation measured after 24 hrs. Type of data set: cell-based.
Target sequence in this assay (P49841 whole entry): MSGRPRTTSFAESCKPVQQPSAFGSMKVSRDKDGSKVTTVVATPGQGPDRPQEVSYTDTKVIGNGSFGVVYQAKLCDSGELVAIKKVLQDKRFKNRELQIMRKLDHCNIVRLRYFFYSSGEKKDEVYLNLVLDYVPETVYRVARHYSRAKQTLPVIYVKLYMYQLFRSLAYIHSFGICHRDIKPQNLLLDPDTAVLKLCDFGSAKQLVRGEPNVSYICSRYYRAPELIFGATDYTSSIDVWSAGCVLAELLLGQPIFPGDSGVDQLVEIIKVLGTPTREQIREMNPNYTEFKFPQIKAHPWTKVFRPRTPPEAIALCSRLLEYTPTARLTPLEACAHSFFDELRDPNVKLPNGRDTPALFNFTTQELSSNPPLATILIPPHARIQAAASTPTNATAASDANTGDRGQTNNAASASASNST
Target sequence in this assay (Q96SW2 whole entry): as the sequence (Q96SW2 whole entry partner) above
In data set [7] the test system is SH-SY5Y. In words: Induction of apoptosis in human SH-SY5Y cells assessed as late apoptotic cells at 125 nM preincubated for 2 hrs followed by coincubation with Abeta42 and measured after 72 hrs by Annexin V-FITC/propidium iodide staining based flow cytometry (Rvb=3.5%). Type of data set: functional. The following applies: time 74 hrs.
In data set [8] the test system is Rattus norvegicus. Kind of data set: Antialzheimer activity against hippocampal tissue of okadaic acid induced Sprague-Dawley rat assessed as reduction on GSK3alpha protein level at 200 to 600 uM, iv by immunohistochemical staining based analysis. Type of data set: functional, organism-based. As to conditions: Hippocampus, dose 200-600 µM.
In data set [9] the test system is Rattus norvegicus. In words: Antialzheimer activity against hippocampal tissue of okadaic acid induced Sprague-Dawley rat assessed as reduction on tau protein level at 200 to 600 uM, iv by western blot assay. The following applies: Hippocampus, dose 200-600 µM. Type of data set: functional, organism-based.
Data set [10] is described as follows: Downregulation of GSK3beta expression in human SH-SY5Y cells accessed as fold change in GSK3beta expression at 1 uM measured after 4 hrs by proteomic analysis. Type of data set: functional.
Data set [11] concerns SH-SY5Y. In words: Induction of apoptosis in human SH-SY5Y cells assessed as live cells at 125 nM preincubated for 2 hrs followed by coincubation with Abeta42 and measured after 72 hrs by Annexin V-FITC/propidium iodide staining based flow cytometry (Rvb=94.8%). The following applies: time 74 hrs. The data set is classed as functional. (In general: In flow cytometry, cells or beads pass a laser one at a time.)

In data set [12] the test system is SH-SY5Y. In words: Downregulation of GSK3beta expression in human SH-SY5Y cells at 62.5 to 500 nM pretreated for 2 hrs followed by Abeta42 coincubation for 72 hrs by Westernblot analysis. The data set is classed as functional, cell-based. The following applies: dose 62.5-500 nM, time 74.0 hrs.
The target of a further data set is hERG (KCNH2) (Homo sapiens, UniProt Q12809). Kind of data set: Inhibition of hERG expressed in CHO cells at 40 uM by whole cell patch clamp assay. The data set is classed as cell-based. As to conditions: CHO cells that express hERG.
Sequence of hERG (KCNH2) (Q12809 whole entry): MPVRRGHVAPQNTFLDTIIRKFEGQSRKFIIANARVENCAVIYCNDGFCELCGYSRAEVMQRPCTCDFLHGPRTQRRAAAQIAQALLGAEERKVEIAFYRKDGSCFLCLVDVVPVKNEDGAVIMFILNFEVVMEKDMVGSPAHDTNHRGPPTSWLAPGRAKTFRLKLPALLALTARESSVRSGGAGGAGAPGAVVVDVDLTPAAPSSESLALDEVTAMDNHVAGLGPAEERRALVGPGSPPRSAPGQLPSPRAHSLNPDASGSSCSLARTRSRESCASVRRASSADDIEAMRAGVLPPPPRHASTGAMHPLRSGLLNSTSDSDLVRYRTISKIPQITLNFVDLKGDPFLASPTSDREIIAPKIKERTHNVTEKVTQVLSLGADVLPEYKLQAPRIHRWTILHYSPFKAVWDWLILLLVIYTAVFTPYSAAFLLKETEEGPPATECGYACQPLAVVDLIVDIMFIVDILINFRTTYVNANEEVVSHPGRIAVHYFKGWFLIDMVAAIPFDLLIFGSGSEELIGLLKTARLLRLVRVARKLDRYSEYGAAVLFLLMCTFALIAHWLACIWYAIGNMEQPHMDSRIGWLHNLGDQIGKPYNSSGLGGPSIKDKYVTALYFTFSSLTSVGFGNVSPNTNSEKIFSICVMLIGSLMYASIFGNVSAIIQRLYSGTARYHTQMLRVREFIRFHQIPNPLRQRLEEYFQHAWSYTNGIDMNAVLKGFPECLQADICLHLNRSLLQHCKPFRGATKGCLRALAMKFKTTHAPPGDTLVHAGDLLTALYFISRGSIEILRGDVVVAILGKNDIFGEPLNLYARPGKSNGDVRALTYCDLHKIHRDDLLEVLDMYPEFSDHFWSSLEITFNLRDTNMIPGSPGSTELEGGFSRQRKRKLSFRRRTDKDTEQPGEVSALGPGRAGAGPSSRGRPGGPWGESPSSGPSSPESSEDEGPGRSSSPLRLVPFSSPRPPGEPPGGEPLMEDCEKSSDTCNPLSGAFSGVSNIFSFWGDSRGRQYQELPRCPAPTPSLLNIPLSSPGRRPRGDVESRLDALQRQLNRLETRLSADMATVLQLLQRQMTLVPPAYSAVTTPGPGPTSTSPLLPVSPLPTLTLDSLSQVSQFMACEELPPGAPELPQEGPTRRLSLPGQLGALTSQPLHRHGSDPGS
The target of data set [13] is T1, Protein cereblon/Glycogen synthase kinase-3 beta. Kind of data set: Protac activity at CRBN/GSK3beta in human SH-SY5Y cells assessed as induction of GSK3beta degradation at 1 uM measured after 24 hrs. Type of data set: cell-based.
Target sequence in this assay (P49841 whole entry, looked up): as the sequence (P49841 whole entry) above
Target sequence in this assay (Q96SW2 whole entry, looked up): as the sequence (Q96SW2 whole entry partner) above
Data set [14] has as its system Rattus norvegicus. Kind of data set: Antialzheimer activity against hippocampal tissue of okadaic acid induced Sprague-Dawley rat assessed as reduction on GSK3beta protein level at 200 to 600 uM, iv by immunohistochemical staining based analysis. Type of data set: functional, organism-based. As to conditions: Hippocampus, dose 200-600 µM.
In data set [15] the test system is SH-SY5Y. Kind of data set: Cytotoxicity against human SH-SY5Y cells assessed as increase in cell viability at 62.5 to 250 nM pretreated for 2 hrs followed by Abeta42 addition and measured after 72 hrs by CCK8 assay. The data set is classed as functional, cell-based. The following applies: dose 62.5-250 nM, time 74.0 hrs. For orientation: Tetrazolium assays rely on reduction of a dye to a coloured formazan, in cell work by metabolically active cells.

As usually defined, the DC50 is the concentration at which degradation of the target reaches its halfway point. As a reminder, the inhibition is the drop in the measured response relative to a control, in per cent. High values mean a strong effect, low ones a weak effect. In the case of `Nc1ncc(-c2ccc(S(=O)(=O)N3CCN(CCCCc4cn(CCOCCOCCOCCOCCOCCNc5cccc6c5C(=O)N(C5CCC(=O)NC5=O)C6=O)nn4)CC3)cc2)nc1C(=O)Nc1cccnc1` (stereo unspecified), the “fold change (FC)” value was determined as 0.35 in data set [1] and 0.33 in data set [10]. Further, the outcome in the data set on Rattus norvegicus [2], in the data set with Rattus norvegicus [3], in the data set on Rattus norvegicus [8], in the data set on Rattus norvegicus [9] and with Rattus norvegicus [14] was Active. Besides, the Activity is 6.7% with SH-SY5Y [4]; 74.4% in [5]; 12.5% in the data set on SH-SY5Y [7]; 83% with SH-SY5Y [11]; “Dose-Dependent Effect” in the data set on SH-SY5Y [12]; 90.8% in data set [13]. Also, the DC50 in [6] is 34.2 nM. The inhibition at 40 µM on hERG (KCNH2) was determined as 15.4%. In addition, the result in the data set on SH-SY5Y [15] was inactive.
